Values quoted from earlier work in patent publication US11903950B2, “BCL-2 inhibitors” (Newave Pharmaceutical Inc., priority 2018, dated 2024).

Legend:
circulating platelets = conditions: clinical trial, patients
[1] = tested on: xenograft models of small-cell lung cancer and acute lymphoblastic leukemia; conditions: oral administration, alone

For `CC1(C)CCC(c2ccc(Cl)cc2)=C(CN2CCN(c3ccc(C(=O)NS(=O)(=O)c4ccc(N[C@H](CCN5CCOCC5)CSc5ccccc5)c(S(=O)(=O)C(F)(F)F)c4)cc3)CC2)C1` [ABT-263], the “number of circulating platelets” value (circulating platelets) is listed as “rapid, concentration-dependent decrease in the number of circulating platelets” and the tumor regression [1] is listed as “complete tumor regressions”.
